{
  "source": "patent US4816487A",
  "about": "“1-(2-hydroxyaryl)-alkane-1-on-oximes-procedure of preparation and use in pharmaceuticals” (Humboldt-Universitaet zu Berlin, priority 1985, dated 1989)",
  "key": {"rat's paw": {"system": "rat's paw", "assay": "carrageenin-induced oedema of rat's paw", "type": "in vivo", "conditions": "50 mg/kg i.p.", "source_text": "This method is an adequate model of asthma bronchiale forms in experimental animals with involvement of IgE-dependent and IgG-dependent allergic reactions /R. Andersson, Brit. J. Pharmacol. 77, 301 (1982)/. The conclusion was, therefore, drawn that the comounds of general Formula I, according to this invention, should, as well, have clearly pronounced antiphlogistic properties. That conclusion was positively verified in vivo by an appropriate inflammatory model in the context of an animal experiment, using carragheenin--induced oedema of rat's paw. The experimental model was handled according to a method proposed by Winter and co-workers /C. A. Winter, E. A. Risley, and G. W. Nuss, Proc. Soc. Exp. Biol. Med. 111, 544 (1962)/ (cf. Example 19).\nInhibition of carrageenin-induced oedema of rat's paw:\nTesting is conducted by methods common in international practice /C.A. Winter, E. A. Risley and G. W. Nuss, Proc. Soc. Exp. Biol. Med. 111, 544 (1962)/. Ten rats received intraperitoneal injections of 50 mg/kg body weight of 5-methyl-2-hydroxy-laurophenone-oxime in parallel with 0.1 ml of 0.1-per-cent carrageenin solution (per animal). The development of paw oedema was measured in one-hour intervals, following application, and compared with manifestations in a control group."}, "[1]": {"molecular_target": "T1, lipoxygenase-1 from soybean (Glycine max, UniProt P08170)", "T1 construct": "purchased", "T1 sequence (P08170 1-839)": "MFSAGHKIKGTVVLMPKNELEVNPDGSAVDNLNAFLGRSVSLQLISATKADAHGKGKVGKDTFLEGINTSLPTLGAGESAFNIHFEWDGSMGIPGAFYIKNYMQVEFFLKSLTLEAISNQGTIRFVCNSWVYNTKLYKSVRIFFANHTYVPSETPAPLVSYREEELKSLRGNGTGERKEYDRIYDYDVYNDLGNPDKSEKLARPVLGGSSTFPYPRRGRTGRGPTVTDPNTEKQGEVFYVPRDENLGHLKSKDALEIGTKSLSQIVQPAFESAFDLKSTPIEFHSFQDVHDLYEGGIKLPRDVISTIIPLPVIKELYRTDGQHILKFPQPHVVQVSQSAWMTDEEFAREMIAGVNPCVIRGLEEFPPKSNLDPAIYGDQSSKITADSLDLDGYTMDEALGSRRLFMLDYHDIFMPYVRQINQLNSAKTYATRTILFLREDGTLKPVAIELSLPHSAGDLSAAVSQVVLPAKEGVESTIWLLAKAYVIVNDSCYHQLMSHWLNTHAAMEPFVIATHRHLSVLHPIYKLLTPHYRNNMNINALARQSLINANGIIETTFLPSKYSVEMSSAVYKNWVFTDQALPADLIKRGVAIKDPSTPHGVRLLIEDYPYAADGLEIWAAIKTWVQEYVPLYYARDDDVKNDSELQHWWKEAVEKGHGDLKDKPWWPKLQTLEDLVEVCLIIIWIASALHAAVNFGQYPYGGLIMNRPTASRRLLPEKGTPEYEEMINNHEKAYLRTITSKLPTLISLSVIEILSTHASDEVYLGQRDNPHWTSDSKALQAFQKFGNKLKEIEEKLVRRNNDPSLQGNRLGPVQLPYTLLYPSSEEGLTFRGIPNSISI", "assay": "inhibition of soybean lipoxygenase-1", "type": "biochemical", "conditions": "ultimate concentration 1.0 mM; read-out: Inhibition (percent) of lipoxygenase from soybean", "experimental": "(§1) Persuasive evidence to inhibition of lipoxygenase was produced by a suitable animal lipoxygenase which had been isolated from rabbit reticulocytes, using a method by Rapoport and coworkers /S. M. Rapoport et al., Eur. J. Biochem. 96, 545 (1979)/. A final concentration of 1 mM of most of the compounds, according to this invention, produced inhibition of 90 percent or more (cf. Example 20). Significant inhibition was even recordable from a final concentration of 0.1 mM of some of the compounds, according to this invention. Substance concentrations were varied to determine the titration curves of inhibition and from these the half-inhibition concentrations (I50 -values). A half-inhibition concentration of 7 μM was established for 5-methyl-2-hydroxy-laurophenone-oxime, an oxime of high anti-asthmatic effectiveness.\n(§2) Lipoxygenase from rabbit reticulocytes was obtained in electrophoretically and immunologically pure form by means of the method described in the literature /S. M. Rapoport et al., Eur. J. Biochem. 96, 545 (1979)/. Lipoxygenase activity was determined at 25° C. by amperometric measurement of oxygen consumption by means of a Clark electrode in the following system: 0.1M potassium phosphate, pH 7.4, with 0.2-per-cent sodium cholate and 0.53 mM linoleic acid. The enzyme concentration was […] in the sample for measurement. The substances submitted for testing were dissolved in methyl glycol (fresh distillation in vacuum) and pre-incubated ten minutes with the enzyme at measurement temperature and in the absence of sodium cholate and linoleic acid. […] No remarkable inhibition occurred to control samples under these conditions. Enzyme reaction was started by addition of sodium cholate and linoleic acid. The titration curve of inhibition and, consequently, the concentrations required for inhibition by the order of 50 per cent were determined by variation of active substance concentrations. For comparison, the compounds were tested also on commercial lipoxygenase-1 from soybean."}, "[2]": {"molecular_target": "T2, lipoxygenase from rabbit reticulocytes (Oryctolagus cuniculus, UniProt P12530)", "T2 construct": "Lipoxygenase from rabbit reticulocytes was obtained in electrophoretically and immunologically pure form; from tissue; host or cells: rabbit reticulocytes", "T2 sequence (P12530 1-663)": "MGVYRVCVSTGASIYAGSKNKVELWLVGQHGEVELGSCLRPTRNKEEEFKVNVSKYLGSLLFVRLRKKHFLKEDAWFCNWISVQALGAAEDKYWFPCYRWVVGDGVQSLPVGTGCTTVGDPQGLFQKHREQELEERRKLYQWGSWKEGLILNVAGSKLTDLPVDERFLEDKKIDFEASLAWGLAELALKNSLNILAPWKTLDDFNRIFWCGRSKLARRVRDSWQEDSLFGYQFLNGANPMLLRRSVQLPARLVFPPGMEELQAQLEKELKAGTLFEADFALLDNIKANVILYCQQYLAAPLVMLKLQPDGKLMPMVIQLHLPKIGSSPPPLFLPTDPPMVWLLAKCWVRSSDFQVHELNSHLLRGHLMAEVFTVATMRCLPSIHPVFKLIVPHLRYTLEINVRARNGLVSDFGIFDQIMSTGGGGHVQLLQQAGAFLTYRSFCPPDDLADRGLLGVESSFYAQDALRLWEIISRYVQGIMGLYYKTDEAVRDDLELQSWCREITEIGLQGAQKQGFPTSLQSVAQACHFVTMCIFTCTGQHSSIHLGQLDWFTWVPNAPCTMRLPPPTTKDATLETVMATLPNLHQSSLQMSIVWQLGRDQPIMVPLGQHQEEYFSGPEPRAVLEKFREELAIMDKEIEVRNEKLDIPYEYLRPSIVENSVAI", "assay": "inhibition of activity of lipoxygenase from rabbit reticulocytes", "type": "biochemical", "experimental": "as §1\nInhibition of activity of lipoxygenase from rabbit reticulocytes:\nas §2"}},
  "note": "pIC50: −log10 of the molar value.",
  "data": [
    {"compound": "CCCCCCCCCCCC(=NO)c1cc(C)ccc1O", "note": "[5-methyl-2-hydroxy-laurophenone-oxime]", "values": [
      {"measurement": "Inhibition of carrageenin-induced oedema", "setting": "rat's paw; 0.5 hr, + significant, P < 0.05", "result": 43, "unit": "%"},
      {"measurement": "Inhibition of carrageenin-induced oedema", "setting": "rat's paw; 1 hr, + significant, P < 0.05", "result": 47, "unit": "%"},
      {"measurement": "Inhibition of carrageenin-induced oedema", "setting": "rat's paw; 2 hr, + significant, P < 0.05", "result": 34, "unit": "%"},
      {"measurement": "Inhibition of carrageenin-induced oedema", "setting": "rat's paw; 3 hr, + significant, P < 0.05", "result": 34, "unit": "%"},
      {"measurement": "Inhibition of carrageenin-induced oedema", "setting": "rat's paw; 4 hr, not marked significant", "result": 31, "unit": "%"},
      {"measurement": "Inhibition of carrageenin-induced oedema", "setting": "rat's paw; 5 hr, not marked significant", "result": 29, "unit": "%"},
      {"measurement": "inhibition at 1000 µM", "setting": "[1]", "result": 67, "unit": "%"},
      {"measurement": "pIC50", "setting": "[2]; limited by solubility, real I50 said to be very much lower, read-out: half-inhibition concentration (I50)", "result": 5.15},
      {"measurement": "inhibition at 1000 µM", "setting": "[2]; ultimate concentration 1.0 mM, read-out: Inhibition (percent) of lipoxygenase from reticulocytes", "result": 100, "unit": "%"}
    ]}
  ]
}
